Reference: PMC7604503, “Cyclic peptides can engage a single binding pocket through highly divergent modes” (Proceedings of the National Academy of Sciences of the …, 2020)
Where a SMILES comes first, the peptide text is derived from it. Bridges are numbered along the chain shown (N, C = ends).

Tests used:
Experiment in all cases: BROMOscan competition binding assay (BromoMAX, Eurofins DiscoverX)
BAZ2A = molecular target: T1, BAZ2A (Homo sapiens, UniProt Q9UIF9); conditions: for Percent Control BAZ2A: compound concentration 1000 nM, lower percentage control = stronger affinity
T1 construct: purchased Eurofins DiscoverX (BROMOscan, BromoMAX)
T1 sequence (Q9UIF9 whole entry): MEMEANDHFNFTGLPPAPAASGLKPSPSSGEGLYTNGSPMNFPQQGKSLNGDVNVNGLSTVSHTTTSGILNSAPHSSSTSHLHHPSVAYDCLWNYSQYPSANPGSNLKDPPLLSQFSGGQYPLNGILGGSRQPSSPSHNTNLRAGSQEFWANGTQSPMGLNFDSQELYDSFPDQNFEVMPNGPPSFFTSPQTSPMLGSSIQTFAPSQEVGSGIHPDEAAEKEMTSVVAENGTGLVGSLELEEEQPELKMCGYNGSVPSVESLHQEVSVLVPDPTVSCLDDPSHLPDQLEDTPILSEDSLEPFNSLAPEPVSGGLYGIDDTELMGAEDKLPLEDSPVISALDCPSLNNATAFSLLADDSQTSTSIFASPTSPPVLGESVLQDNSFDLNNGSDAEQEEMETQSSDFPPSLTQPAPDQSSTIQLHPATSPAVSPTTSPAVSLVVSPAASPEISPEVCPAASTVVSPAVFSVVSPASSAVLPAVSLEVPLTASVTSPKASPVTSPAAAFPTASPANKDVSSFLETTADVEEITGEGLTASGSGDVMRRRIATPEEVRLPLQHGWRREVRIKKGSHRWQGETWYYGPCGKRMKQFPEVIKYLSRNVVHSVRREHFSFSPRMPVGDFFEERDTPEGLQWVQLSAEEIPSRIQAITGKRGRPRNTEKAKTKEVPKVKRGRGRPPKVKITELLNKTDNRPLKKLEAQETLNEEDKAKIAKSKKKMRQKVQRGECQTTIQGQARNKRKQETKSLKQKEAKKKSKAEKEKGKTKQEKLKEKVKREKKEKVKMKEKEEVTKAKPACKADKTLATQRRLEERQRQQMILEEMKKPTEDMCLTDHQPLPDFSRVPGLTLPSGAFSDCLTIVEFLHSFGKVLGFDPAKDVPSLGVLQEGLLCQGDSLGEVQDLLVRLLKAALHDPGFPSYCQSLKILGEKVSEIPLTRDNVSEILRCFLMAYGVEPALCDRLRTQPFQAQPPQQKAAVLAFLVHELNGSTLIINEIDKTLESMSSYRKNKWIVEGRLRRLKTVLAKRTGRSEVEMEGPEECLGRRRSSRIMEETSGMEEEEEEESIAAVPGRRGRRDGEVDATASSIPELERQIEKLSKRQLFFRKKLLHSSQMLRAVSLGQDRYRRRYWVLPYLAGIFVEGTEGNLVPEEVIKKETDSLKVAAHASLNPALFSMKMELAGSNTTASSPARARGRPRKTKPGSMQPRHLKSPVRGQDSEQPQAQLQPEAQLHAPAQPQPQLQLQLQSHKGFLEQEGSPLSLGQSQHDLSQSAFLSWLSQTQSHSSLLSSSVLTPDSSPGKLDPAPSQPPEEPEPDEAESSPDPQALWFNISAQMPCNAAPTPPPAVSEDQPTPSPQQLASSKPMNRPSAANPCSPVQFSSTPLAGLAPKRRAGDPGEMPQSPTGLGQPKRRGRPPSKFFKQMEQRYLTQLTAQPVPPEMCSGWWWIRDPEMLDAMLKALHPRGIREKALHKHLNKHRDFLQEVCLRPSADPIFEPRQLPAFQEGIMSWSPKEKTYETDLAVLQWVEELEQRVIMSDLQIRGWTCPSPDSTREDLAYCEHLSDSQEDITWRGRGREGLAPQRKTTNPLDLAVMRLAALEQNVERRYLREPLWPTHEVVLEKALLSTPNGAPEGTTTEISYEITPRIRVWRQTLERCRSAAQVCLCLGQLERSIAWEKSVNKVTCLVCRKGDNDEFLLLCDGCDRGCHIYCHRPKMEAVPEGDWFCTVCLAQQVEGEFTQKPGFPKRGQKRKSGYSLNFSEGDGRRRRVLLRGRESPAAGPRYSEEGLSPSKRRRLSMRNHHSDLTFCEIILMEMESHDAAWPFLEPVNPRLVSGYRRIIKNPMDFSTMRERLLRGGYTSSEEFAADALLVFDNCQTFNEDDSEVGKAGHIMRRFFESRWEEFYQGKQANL

BRD2(1) = molecular target: T2, BRD2(1) (Homo sapiens, UniProt P25440); conditions: for Percent Control BRD2(1): compound concentration 1000 nM, lower percentage control = stronger affinity
T2 construct: BRD2(1); purchased Eurofins DiscoverX (BROMOscan, BromoMAX)
T2 sequence (P25440 71-194 limits assumed): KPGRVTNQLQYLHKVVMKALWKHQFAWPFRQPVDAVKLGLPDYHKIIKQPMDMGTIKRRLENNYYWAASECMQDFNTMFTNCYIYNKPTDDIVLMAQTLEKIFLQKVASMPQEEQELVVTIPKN

BRD4(1) = molecular target: T3, BRD4(1) (Homo sapiens, UniProt O60885); conditions: for Percent Control BRD4(1): compound concentration 1000 nM, lower percentage control = stronger affinity
T3 construct: BRD4(1); purchased Eurofins DiscoverX (BROMOscan, BromoMAX)

BRD4(2) = molecular target: T4, BRD4(2) (Homo sapiens, UniProt O60885); conditions: for Percent Control BRD4(2): compound concentration 1000 nM, lower percentage control = stronger affinity
T4 construct: BRD4(2); purchased Eurofins DiscoverX (BROMOscan, BromoMAX)

BRD7 = molecular target: T5, BRD7 (Homo sapiens, UniProt Q9NPI1); conditions: for Percent Control BRD7: compound concentration 1000 nM, lower percentage control = stronger affinity
T5 construct: purchased Eurofins DiscoverX (BROMOscan, BromoMAX)
T5 sequence (Q9NPI1 1-651): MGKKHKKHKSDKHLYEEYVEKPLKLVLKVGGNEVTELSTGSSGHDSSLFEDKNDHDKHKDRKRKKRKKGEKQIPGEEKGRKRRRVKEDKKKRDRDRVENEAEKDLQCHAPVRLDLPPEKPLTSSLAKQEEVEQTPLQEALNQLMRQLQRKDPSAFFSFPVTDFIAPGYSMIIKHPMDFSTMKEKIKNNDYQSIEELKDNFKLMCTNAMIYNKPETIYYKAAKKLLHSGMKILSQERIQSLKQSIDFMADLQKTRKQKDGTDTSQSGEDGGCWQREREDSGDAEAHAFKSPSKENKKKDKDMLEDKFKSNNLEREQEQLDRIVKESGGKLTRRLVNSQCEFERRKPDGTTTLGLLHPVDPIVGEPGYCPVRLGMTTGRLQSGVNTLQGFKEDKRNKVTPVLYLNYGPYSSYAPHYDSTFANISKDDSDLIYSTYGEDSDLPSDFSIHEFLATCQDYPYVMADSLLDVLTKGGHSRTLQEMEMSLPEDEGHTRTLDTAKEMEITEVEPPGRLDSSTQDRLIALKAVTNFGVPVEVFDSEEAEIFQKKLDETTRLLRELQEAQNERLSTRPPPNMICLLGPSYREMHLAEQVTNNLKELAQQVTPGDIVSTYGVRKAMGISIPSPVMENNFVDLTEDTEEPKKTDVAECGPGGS

BRPF1 = molecular target: T6, BRPF1 (Homo sapiens, UniProt P55201); conditions: for Percent Control BRPF1: compound concentration 1000 nM, lower percentage control = stronger affinity
T6 construct: purchased Eurofins DiscoverX (BROMOscan, BromoMAX)
T6 sequence (P55201 1-1214): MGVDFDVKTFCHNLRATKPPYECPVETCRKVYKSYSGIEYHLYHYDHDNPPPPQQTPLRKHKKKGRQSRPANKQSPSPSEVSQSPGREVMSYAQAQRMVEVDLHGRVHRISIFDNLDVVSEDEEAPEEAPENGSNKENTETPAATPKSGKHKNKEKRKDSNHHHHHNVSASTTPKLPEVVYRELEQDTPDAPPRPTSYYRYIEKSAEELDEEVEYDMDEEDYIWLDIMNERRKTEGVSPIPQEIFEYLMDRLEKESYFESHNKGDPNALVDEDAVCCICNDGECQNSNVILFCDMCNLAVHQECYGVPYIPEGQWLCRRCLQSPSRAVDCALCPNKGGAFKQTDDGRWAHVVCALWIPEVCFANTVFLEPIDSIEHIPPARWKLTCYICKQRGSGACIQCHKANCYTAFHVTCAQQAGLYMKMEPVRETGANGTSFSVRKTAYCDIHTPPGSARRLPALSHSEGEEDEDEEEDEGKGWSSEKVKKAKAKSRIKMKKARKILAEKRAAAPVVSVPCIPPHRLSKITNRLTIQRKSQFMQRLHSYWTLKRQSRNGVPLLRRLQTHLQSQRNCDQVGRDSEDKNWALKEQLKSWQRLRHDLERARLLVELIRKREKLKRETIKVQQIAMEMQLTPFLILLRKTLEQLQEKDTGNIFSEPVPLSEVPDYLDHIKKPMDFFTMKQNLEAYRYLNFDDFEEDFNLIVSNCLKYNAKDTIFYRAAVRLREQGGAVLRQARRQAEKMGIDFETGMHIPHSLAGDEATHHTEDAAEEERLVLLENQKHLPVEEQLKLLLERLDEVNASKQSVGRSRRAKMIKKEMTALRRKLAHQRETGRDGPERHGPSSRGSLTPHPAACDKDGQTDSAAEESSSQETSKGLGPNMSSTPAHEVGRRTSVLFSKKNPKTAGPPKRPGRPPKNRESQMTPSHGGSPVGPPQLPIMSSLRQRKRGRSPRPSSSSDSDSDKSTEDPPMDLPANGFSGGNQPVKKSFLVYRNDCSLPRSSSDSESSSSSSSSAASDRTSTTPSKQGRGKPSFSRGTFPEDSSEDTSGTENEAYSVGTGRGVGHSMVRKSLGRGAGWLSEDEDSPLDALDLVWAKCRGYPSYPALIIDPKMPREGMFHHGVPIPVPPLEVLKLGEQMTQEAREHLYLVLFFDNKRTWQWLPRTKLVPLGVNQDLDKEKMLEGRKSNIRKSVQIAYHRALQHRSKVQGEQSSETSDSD

PBRM1(5) = molecular target: T7, PBRM1(5) (Homo sapiens, UniProt Q86U86); conditions: for Percent Control PBRM1(5): compound concentration 1000 nM, lower percentage control = stronger affinity
T7 construct: PBRM1(5); purchased Eurofins DiscoverX (BROMOscan, BromoMAX)
T7 sequence (Q86U86 645-766 limits assumed): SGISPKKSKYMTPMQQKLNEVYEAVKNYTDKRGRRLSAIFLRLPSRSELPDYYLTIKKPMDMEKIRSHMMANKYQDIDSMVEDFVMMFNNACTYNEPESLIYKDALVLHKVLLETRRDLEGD

WDR9(2) = molecular target: T8, WDR9(2) (Homo sapiens, UniProt Q9NSI6); conditions: for Percent Control WDR9(2): compound concentration 1000 nM, lower percentage control = stronger affinity
T8 construct: WDR9(2); purchased Eurofins DiscoverX (BROMOscan, BromoMAX)
T8 sequence (Q9NSI6 1307-1433 limits assumed): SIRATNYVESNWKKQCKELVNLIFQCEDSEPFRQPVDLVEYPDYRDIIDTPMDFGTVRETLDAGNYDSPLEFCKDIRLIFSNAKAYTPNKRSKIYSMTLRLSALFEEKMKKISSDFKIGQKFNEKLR

| Structure (SMILES) | Percent Control BAZ2A (BAZ2A) [%] | Percent Control BRD2(1) (BRD2(1)) [%] | Percent Control BRD4(1) (BRD4(1)) [%] | Percent Control BRD4(2) (BRD4(2)) [%] | Percent Control BRD7 (BRD7) [%] | Percent Control BRPF1 (BRPF1) [%] | Percent Control PBRM1(5) (PBRM1(5)) [%] | Percent Control WDR9(2) (WDR9(2)) [%] | remaining binding at 1 µM (BAZ2A; read-out: Percent Control BAZ2A) [%] | percent of control binding at 1 µM (BRD2(1)) [%] | remaining binding at 1 µM (BRD4(1); read-out: Percent Control BRD4(1)) [%] | remaining binding at 1 µM (BRD4(2); read-out: Percent Control BRD4(2)) [%] | remaining binding at 1 µM (BRD7; read-out: Percent Control BRD7) [%] | remaining binding at 1 µM (BRPF1; read-out: Percent Control BRPF1) [%] | remaining binding at 1 µM (PBRM1(5); read-out: Percent Control PBRM1(5)) [%] | percent of control binding at 1 µM (WDR9(2)) [%] |
| --- | --- | --- | --- | --- | --- | --- | --- | --- | --- | --- | --- | --- | --- | --- | --- | --- |
| CC[C@H](C)[C@@H]1NC(=O)[C@H]([C@@H](C)O)NC(=O)[C@H](CCCCN)NC(=O)[C@H](Cc2c[nH]c3ccccc23)NC(=O)CSC[C@@H](C(N)=O)NC(=O)[C@H](CCC(N)=O)NC(=O)[C@H](CCCCNC(C)=O)NC(=O)[C@H]([C@@H](C)O)NC(=O)[C@H](CCCNC(=N)N)NC(=O)[C@H](Cc2c[nH]c3ccccc23)NC(=O)[C@H]([C@@H](C)O)NC(=O)[C@H](CCCCNC(C)=O)NC(=O)CNC(=O)[C@H](CCCCNC(C)=O)NC1=O [3.1B] ({CH2CO}-WKTIK(Ac)GK(Ac)TWRTK(Ac)QC-NH2; thioether N-14) | 15 | 21 | 0.2 | 99 | 99 | 100 | 100 | 96 |  |  |  |  |  |  |  |  |
| CC[C@H](C)[C@@H]1NC(=O)[C@H](Cc2c[nH]c3ccccc23)NC(=O)[C@H](Cc2c[nH]c3ccccc23)NC(=O)CSC[C@@H](C(N)=O)NC(=O)CNC(=O)[C@H](CCCCNC(C)=O)NC(=O)[C@H](CCCCN)NC(=O)[C@H](C(C)C)NC(=O)[C@H](CCCCNC(C)=O)NC(=O)[C@@H]2CCCN2C(=O)[C@H]([C@@H](C)CC)NC1=O [3.1C] ({CH2CO}-WWIIPK(Ac)VKK(Ac)GC-NH2; thioether N-11) | 99 | 2.4 | 0 | 13 | 96 | 100 | 89 | 87 |  |  |  |  |  |  |  |  |
| CC[C@H](C)[C@H](NC(=O)[C@H](CCCNC(=N)N)NC(=O)[C@H](CCCCNC(C)=O)NC(=O)[C@H](CCCNC(=N)N)NC(=O)[C@H](CC(C)C)NC(=O)[C@@H]1CSCC(=O)N[C@@H](Cc2c[nH]c3ccccc23)C(=O)N[C@@H](CCCCNC(C)=O)C(=O)NCC(=O)N[C@@H](Cc2ccc(O)cc2)C(=O)N[C@@H](CC(C)C)C(=O)N1)C(=O)N[C@@H](CCC(N)=O)C(=O)N[C@@H](CCCNC(=N)N)C(=O)N[C@H](C(=O)N[C@@H](Cc1ccc(O)cc1)C(=O)N[C@@H](CC(N)=O)C(N)=O)[C@@H](C)O [4.2C] ({CH2CO}-WK(Ac)GYLCLRK(Ac)RIQRTYN-NH2; thioether N-6) |  |  |  |  |  |  |  |  | 100 | 85 | 96 | 24 | 97 | 100 | 90 | 85 |
